The values below come from publication PMC12350126, “A novel carboxamide bromodomain inhibitor attenuates osteoarthritis via epigenetic repression of NF-κB and MAPK signaling” (Frontiers in Immunology, 2025).

Bounds are passed on as bounds.

The test system of series [1] is NF-κB and MAPK signaling in mouse articular chondrocytes. The series can be described thus: IL-1β-induced NF-κB and MAPK signaling in chondrocytes (western blotting, densitometry). Type of series: cell-based. The settings on record: NCD 10, 50, 100 μM pretreatment 12 h, IL-1β 1 ng/mL 10 min. As for the experimental part:
The total protein was extracted from the primary cultured chondrocytes using a lysis buffer, containing 150 mM NaCl, 1% NP-40, 50 mM Tris/HCl (pH 8.0), 0.2% sodium dodecyl sulfate, and 5 mM NaF, supplemented with protease and phosphatase inhibitor mixture (Roche, Madison, WI, USA). Proteins were separated using sodium dodecyl sulfate-polyacrylamide gel electrophoresis, and western blot analysis was performed using the following antibodies: goat anti‐Cox2 (sc‐1745; Santa Cruz Biotechnology, Dallas, TX, USA), mouse anti-Erk1/2 (610408; Becton Dickinson, NJ, USA), mouse anti-IκB [9242; Cell Signaling Technology (CST), MA, USA], mouse anti-p65 (8242; CST), mouse anti-phospho-p65 (3033; CST), mouse anti-p38 (#9212; CST), mouse anti-pp38 (#9215S; CST), mouse anti-c-Jun N-terminal kinase (Jnk) (#9252S; CST), mouse anti-pJnk (#9251S; CST), and mouse anti-pErk (#9101S; CST). Each signal was visualized using a SuperSignal West Dura Kit (Thermo Fisher Scientific, Waltham, MA, USA). Density analysis (AlphaEase FC 4.0; Alpha Innotech, CA, USA) was performed to calculate the relevant band intensities. Extracellular signal-regulated kinase (Erk) was used as the loading control ([28]).
Figure 6 NCD regulates NF-κB and MAPK signaling pathways induced by IL-1β in mouse chondrocytes. Articular chondrocytes were pretreated with NCD at different concentrations (0,10, 50, or 100 μM) for 12 h (n = 3) before being stimulated with IL-1β (1 ng/mL) for 10 min. Levels of phosphorylated Jnk (pJnk), phosphorylated Erk (pErk), and phosphorylated p38 (pp38) proteins were determined using western blotting. (A, B) Protein levels of IκB were detected using western blotting (A) and densitometry (B). JQ-1 (200 μM) was used as a positive control. All data were analyzed using one‐way analysis of variance with Bonferroni’s test and expressed as mean ± standard error of mean (SEM) (n = 3); *P < 0.05, **P < 0.01, ***P < 0.001, and ****P < 0.0001 compared to the control group.

For series [2], the target named is T1, BRD2 (BD1 + BD2) (Homo sapiens, UniProt P25440).
T1 construct: kits specific for BRD2 (BD1 + BD2); purchased BPS Bioscience
The series can be described thus: TR-FRET assay, BRD2 (BD1 + BD2). The settings on record: lower signal = stronger binding. As for the experimental part:
(§1) TR-FRET assays were conducted using kits specific for BRD2 (BD1 + BD2), BRD3 (BD1 + BD2), and BRD4 (BD1 + BD2) obtained from BPS Bioscience (San Diego, CA, USA). Bromodomain ligands were diluted in water, and master mixes were prepared by combining the diluted ligands with 1× BRD Homogeneous Assay Buffer. Thawed BRD proteins were also diluted with the same buffer. For each assay, 1.5 μL of the master mix was dispensed into wells of a microplate (Labcyte, San Jose, CA, USA), followed by the addition of 5 μL of diluted BRD protein to initiate the reaction. Plates were incubated at 20–22°C for 30–60 min. Subsequently, glutathione (GSH) acceptor beads and streptavidin-conjugated donor beads (both from PerkinElmer, Waltham, MA, USA) were diluted in 1× BRD Homogeneous Detection Buffer 1. Next, 10 μL of the acceptor bead solution was added to each well and incubated at 18°C for 30 min, followed by the addition of 10 μL of donor bead solution and a further incubation at 18°C for 15–30 min. Alpha particle counts were measured using an EnVision 2105 multimode plate reader (PerkinElmer).

Series [3] concerns the target T2, BRD3 (BD1 + BD2) (Homo sapiens, UniProt Q15059).
T2 construct: BRD3 (BD1 + BD2); purchased BPS Bioscience
The series can be described thus: TR-FRET assay, BRD3 (BD1 + BD2). Conditions: lower signal = stronger binding. As for the experimental part: as §1

Series [4] deals with PGE2 production in IL-1β-treated mouse articular chondrocytes. Briefly: PGE2 ELISA in IL-1β-treated chondrocytes. In kind it is cell-based. The settings on record: NCD 10, 50, 100 µM, dose-dependent. As for the experimental part: NCD was supplied by Benobio Co (Gyeonggi-do, Korea), and IL‐1β was purchased from GenScript (Piscataway, NJ, USA). NCDs were dissolved in phosphate-buffered saline (PBS) for oral administration or IA injection.
PGE2 expression was determined by enzyme-linked immunosorbent assay (ELISA) using a PGE2 Immunoassay Kit (R&D Systems, Minneapolis, MN, USA). The levels of PGE2 in the conditioned medium of articular chondrocytes were determined. Collagenase activity was measured using a VICTOR X3 Microplate Reader (PerkinElmer, Waltham, MA, USA) at the excitation/emission wavelengths of 490/530 nm following the protocol provided by the manufacturer.

The target of series [5] is T3, BRD4 BD2 (Homo sapiens, UniProt O60885).
T3 construct: BRD3 BD2, BRD4 BD1, BRD4 BD2; biotin (biotinylated protein); made in house; host or cells: Escherichia coli BL21(DE3)
Briefly: Biosensor binding kinetics assay (Octet), BRD4 BD2. As for the experimental part: Binding kinetics were assessed using the Octet® R2 system (Sartorius, Göttingen, Germany). Superstreptavidin biosensors were loaded with biotinylated BRD2 BD1, BRD2 BD2, BRD3 BD1, BRD3 BD2, BRD4 BD1, BRD4 BD2, or biotin alone (as a negative control) in PBST buffer (phosphate-buffered saline containing 0.02% Tween 20 and 5% DMSO). The sensors were then dipped into compound solutions for 10 min. To evaluate association kinetics (kon), each sensor was exposed to serial dilutions of the protein for 180 s, followed by dipping them into PBST buffer to assess dissociation kinetics (koff). For control, a separate sensor loaded with the compound was dipped into PBST alone. Competition binding assays were performed by exposing the compound-loaded sensor to mixtures of proteins and test compounds.

The test system of series [6] is mouse primary articular chondrocytes. Briefly: Chondrocyte viability by lactate dehydrogenase (LDH) assay. In kind it is cell-based. The settings on record: 12 h, NCD 0, 10, 20, 50, 100 µM, JQ1 different concentrations.
In series [7] the target is T4, BRD4 (BD1 + BD2) (Homo sapiens, UniProt O60885).
T4 construct: BRD4 (BD1 + BD2); purchased BPS Bioscience
The series can be described thus: TR-FRET assay, BRD4 (BD1 + BD2). The settings on record: lower signal = stronger binding. As for the experimental part:
as §1

T2 sequence (Q15059 29-417 limits assumed): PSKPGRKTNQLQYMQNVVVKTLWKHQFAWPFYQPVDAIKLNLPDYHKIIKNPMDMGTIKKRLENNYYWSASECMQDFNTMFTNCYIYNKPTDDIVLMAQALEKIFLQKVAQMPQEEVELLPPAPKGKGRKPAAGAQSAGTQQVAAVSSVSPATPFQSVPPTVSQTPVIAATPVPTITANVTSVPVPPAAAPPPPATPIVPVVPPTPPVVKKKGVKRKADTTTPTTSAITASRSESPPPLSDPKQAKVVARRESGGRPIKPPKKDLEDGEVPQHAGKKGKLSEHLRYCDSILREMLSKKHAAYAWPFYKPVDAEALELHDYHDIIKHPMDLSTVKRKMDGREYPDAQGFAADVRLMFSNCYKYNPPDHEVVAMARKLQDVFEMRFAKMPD
T1 sequence (P25440 65-459 limits assumed): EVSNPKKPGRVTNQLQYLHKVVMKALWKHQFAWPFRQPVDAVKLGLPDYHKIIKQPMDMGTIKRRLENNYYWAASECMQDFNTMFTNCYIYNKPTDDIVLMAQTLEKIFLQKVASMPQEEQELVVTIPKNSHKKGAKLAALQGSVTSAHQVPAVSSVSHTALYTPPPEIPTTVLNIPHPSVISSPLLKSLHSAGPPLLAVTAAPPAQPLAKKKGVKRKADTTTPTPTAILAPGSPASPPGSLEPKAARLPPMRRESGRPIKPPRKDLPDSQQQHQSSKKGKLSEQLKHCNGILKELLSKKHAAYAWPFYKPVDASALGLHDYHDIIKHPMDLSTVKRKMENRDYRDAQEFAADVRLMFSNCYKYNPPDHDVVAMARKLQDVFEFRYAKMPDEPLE

In the case of `CNC(=O)CC1C(=O)NCCN1Cc1ccc(-c2ccccc2-c2cccc3c2CN(C)C3=O)o1` (centres unmarked) [NCD, N-methyl-2-(1-((5-(2-(2-methyl-1-oxoisoindolin-4-yl)phenyl)furan-2-yl)methyl)-3-oxopiperazin-2-yl)acetamide], in series [1], the “Degradation of IκB” value is “effectively prevented”, the “Phosphorylation level of ERK” value was “markedly reduced”, the “Phosphorylation level of JNK” value is listed as “markedly reduced” and the “Phosphorylation of the p65 subunit” value is recorded as “significantly suppressed”. Besides, the p38 phosphorylation entry in series [1] is “remained largely unaffected”. In addition, in series [2], the TR-FRET value amounted to 96511 RLU. In series [3], the TR-FRET value was more than 100000 RLU. The PGE2 production result in series [4] is “significantly decreased”. The equilibrium dissociation constant (Kd) in series [5] was more than 1000 nM. Moreover, in series [6], the “Cell viability / cytotoxicity (LDH assay)” value is “no significant cytotoxic effects”. Also, the TR-FRET value in series [7] was more than 100000 RLU.
